Four compounds from US9650405B2, “Modified sophorolipids as oil solubilizing agents” (Polytechnic Institute of New York University, priority 2010, dated 2017) can be followed below.

Where two headings read alike, the source gives them in different places.

The nature of series [1]: Emulsion type: dilution test and oil soluble dye staining. The series is classed as physicochemical. The following applies: for emulsion type by Oil Red O staining: 2%-by-weight relative to water phase, oil/water 5/5 and 7/3. Here is the method: In this test the emulsion is diluted either with oil (O) or water (W). If the emulsion is O/W type and it is diluted with water, it will remain stable as water is the dispersion medium. However, if the emulsion is O/W type and it is diluted with oil, the emulsion will break as oil and water are not miscible with each other. […] Emulsions of the O/W type have separated layers after dilution with pure oil but form a homogenous phase when diluted by water. Unless otherwise specified, the emulsion type formed by MSLs were oil in water.
In FIG. 13B, the tube on the left was diluted with 1 mL of oil whereas the tube on right was diluted with water. Visual observation of the tubes in FIG. 13B supports that the emulsions formed are indeed O/W emulsions.
Oil Red O was applied as an oil soluble dye and emerald green as water soluble dye in the process of emulsion preparation. Observations of emulsions were made before and after staining under optical microscope at 400× magnification (FIG. 14). […] The formation of O/W emulsions and not W/O emulsions with this set of MSL compounds would not be obvious to one skilled in the art. We believe that O/W emulsions are formed by this set of MSLs due to that large sophorose polar head groups requires relatively more space than the lipid tails and, therefore self-assemble into spherical type structures where disaccharide groups are locating outside the droplets.

The nature of series [2]: Emulsion stability based on phase separation. The class given is physicochemical. The settings on record: for emulsion layer percentage: paraffin oil/water 5/5, 2%-by-weight emulsifier, after 24 hours at 25° C. The procedure: The emulsion was obtained by homogenizing the oil and water mixture and was allowed to settle at room temperature for 24 hours. […] Then, this mixture was homogenized at 13,000 rpm for 2 minutes. Thereafter, the resulting emulsion was left unagitated at 25° C. for 24 hours. Surfactants which give a larger emulsion phase are denoted as having higher emulsion effectiveness (Process Safety and Environment protection, 2005, 83, 38-46). […] Thus, unexpectedly, that longer alkyl chains, at least up to butyl and hexyl, provided improved interfacial stability at the paraffin oil/water interface. […] Apparently, ester bonds of SL-esters are less disruptive to organization at the oil water interface than amide bonds of SL-amides. […] The acidic SL (3) gave an 8% emulsion layer, much lower than the MSL examples given herein. Similarly, the natural SL (1) mixture gave a 10% emulsion layer. This performance is also far below that of SL-butyl amide (24), hexyl amide (25), butyl ester (8) and hexyl ester (16).
After homogenized at 13,000 rpm for 2 minutes, the emulsions were kept at room temperature and separation of the respective oil, emulsion and water layers was recorded for up to 1 month.

A short description of series [3]: Surface tension versus surfactant concentration: CMC and minimum surface tension. The class given is physicochemical. The following applies: SL-amides; 25° C. The procedure: The surface tension change with the increase of surfactant concentration of a series of SL amides was measured at 25° C. and the results are shown in Table 2. CMC and minimum surface tension (MST) decrease as the chain length of the n-alkyl amide moiety increase. […] This trend can be explained by the increased hydrophobicity of the surfactant hydrophobic tail with increased chain length of the n-alkyl amide.
The relation of CMC within a homologous series of surfactants and the carbon chain length (straight-chain), n, is usually described as: Log (CMC)=A−Bn (1)
Where A and B are constants specific to the series and n is the carbon on the hydrophobic chains. It was reported that the CMC of alkyl-β-D-glucoside decreased by ⅓ for each additional CH2 group (L. Zhang. D.E.S. Thesis, Columbia University). For a series of SL-esters prepared from n-alkanols of varying chain length, the CMC decreased by ½ per additional CH2 group (L. Zhang Colloid Surface, 240, 2004, 75).

The nature of series [4]: Solubility of MSLs in water. The source says:
If the material precipitates upon cooling or was to some extent insoluble, the insoluble material was separated by filtration, dried and weighed.

Series [5] in a line: Emulsion viscosity measurement. The class given is physicochemical. The following applies: oil/water 7/3, 1% MSL, shear rate 1 S^−1. The procedure:
Viscosity was measured at 25° C. with increasing shear rate from 1 S^−1 to 750 S^−1. The viscosity change was monitored for aging times up to 3 months. For all samples, the paraffin oil/water ratio is 7/3 and the surfactant concentrations studied were 0.5%, 1% to 2%-by-weight relative to the oil phase. FIG. 19 presents the viscosity change with shear rate for different aging times. […] The emulsion tested was prepared using 2%-by-weight SL-butyl ester relative to paraffin oil. Viscosity decreases with increased shear rate implying the emulsion follows shear shinning. Furthermore, viscosity decreased with increased storage time. […] This change is consistent with the small increase in oil phase particle size (1.7 to 2.1 μm) with aging from 1 day to 3-months (Tables 4 and 5).
Values of ηlow decreased with storage time to various extents that are dependent on the MSL compound used to stabilize the emulsion. […] The relative ability of different MSL structures to stabilize emulsions and thereby decrease the extent of decrease in viscosity as a function of aging time would not be predictable by one skilled in the art. The behavior as a function of MSL structure is related to emulsion dispersed phase droplet size. That is, the smaller the change in droplet size, the less decrease in emulsion viscosity occurs with increased aging time. Smaller changes in droplet size reflects the ability of the emulsifier to better stabilize particles. For example, the viscosity of the emulsion stabilized by SL-butyl amide decreased by 65% (from 344 Pas to 120 Pas) whereas the viscosity of the emulsion stabilized by SL-hexyl ester decreased by 20% (from 457 Pas to […]).
The viscosity was measured 24 hours after emulsion preparation. The viscosity increased with increasing surfactant concentration. Such behavior could not have been predicted by one skilled in the art without the teaching provided in this disclosure. The extent of viscosity change with surfactant concentration is related to the interfacial free energy at the droplet surface that reduces with the increase of surfactant concentration.

Series [6] is described as follows: Emulsion droplet size distribution, Coulter LS 230 analyzer. The series is classed as physicochemical. The settings on record: paraffin oil-to-water 7:3 v/v, 25° C. The procedure: Emulsified oil droplet size (average and standard deviation) was measured after suitable dilution of the emulsion phase using a Coulter LS 230 analyzer. […] Relative to natural and lactonic SL, selected MSLs show improved properties as emulsifiers on paraffin oil.
After being aged for 3-months, emulsified oil droplet size (average and standard deviation) was measured after suitable dilution of the emulsion phase using a Coulter LS 230 analyzer and the results are listed in Table 5. […] However, increasing the surfactant concentration from 1 to 2% did result in substantially smaller emulsion-phase droplet sizes. […] This is evidence that MSL's can stabilize oil phases greatly decreasing their tendency to undergo coalescence. […] It follows that the results of 3-month aging studies support the utility of selected MSLs for formation and stabilization of oil-in-water emulsions of paraffin oil phases. One skilled in the art would expect that the ability of these MSLs to stabilize paraffin oil phases teaches that they would also stabilize oil phases of similar structure.

Turning to `CNC(=O)CCCCCCCC=CCCCCCCC(C)OC1OC(CO)C(O)C(O)C1OC1OC(CO)C(O)C(O)C1O` (centres unmarked) [Compound 22, SL-Methyl Amide], the “emulsion type by Oil Red O staining” value in series [1] was “O/W”. In addition, in series [2], the emulsion layer percentage entry is given as “no emulsion layer was observed”. In addition, in series [3], the “CMC Range” value is reported as 650-670 10^−6M and the “MST (minimum surface tension)” value is 43.3 mN/m.

Broadly, the Solubility is the concentration that dissolves in the medium under given conditions. Low values mean a poorly soluble substance, high ones a readily soluble substance. Turning to `CCNC(=O)CCCCCCCC=CCCCCCCC(C)OC1OC(CO)C(O)C(O)C1OC1OC(CO)C(O)C(O)C1O` (centres unmarked) [Compound 23, SL-Ethyl Amide], in series [1], the “emulsion type by Oil Red O staining” value was “O/W”. For the same compound, in series [4], the Solubility is greater than 40 mg/mL. Further, the emulsion layer percentage entry in series [2] is recorded as “no emulsion layer was observed”. Besides, in series [3], the “CMC Range” value is reported as 300-310 10^−6M and the “MST (minimum surface tension)” value is 40.9 mN/m.

Turning to `CCCCNC(=O)CCCCCCCC=CCCCCCCC(C)OC1OC(CO)C(O)C(O)C1OC1OC(CO)C(O)C(O)C1O` (centres unmarked) [Compound 24, SL-Butyl Amide], in series [1], the “emulsion type by Oil Red O staining” value is “O/W”. In series [4], this compound displayed a Solubility greater than 40 mg/mL. In series [5], the “low shear emulsion viscosity, after aging period” value was determined as 120 Pas. Moreover, the “low shear emulsion viscosity, before aging” value in series [5] is given as 344 Pas. The “viscosity decrease over the aging period” value in series [5] is reported as 65%. In series [2] (oil/water 5/5, 2%-by-weight, 3 days), the “emulsion layer in 3 days” value is “not observed in 3 days”. In series [2], the emulsion layer percentage amounted to 20%. Further, the “CMC Range” value in series [3] was 45-50 10^−6M. Besides, the “MST (minimum surface tension)” value in series [3] stood at 38.7 mN/m. The Average droplet size was determined as 3.0 ± 0.2 μm in series [6] (0.5 weight %, 24 hours); 6.3 ± 1.0 μm in series [6] (0.5 weight %, aged 3-months); 2.5 ± 0.2 μm in series [6] (1 weight %, 24 hours); 4.7 ± 0.8 μm in series [6] (1 weight %, aged 3-months); 1.9 ± 0.1 μm in series [6] (2 weight %, 24 hours); 3.0 ± 0.4 μm in series [6] (2 weight %, aged 3-months).

`CCCCCCNC(=O)CCCCCCCC=CCCCCCCC(C)OC1OC(CO)C(O)C(O)C1OC1OC(CO)C(O)C(O)C1O` (centres unmarked) [Compound 25, SL-Hexyl Amide]: the “emulsion type by Oil Red O staining” value in series [1] is given as “O/W”. The “emulsion type by dilution test” value in series [1] (2 weight % emulsifier, water/oil ratio 5/5, paraffin) is listed as “O/W emulsions”. For the same compound, in series [4] (distilled water, 25° C.), the Solubility was less than 11 mg/mL. The “emulsion layer volume-%, one month” value in series [2] (oil/water 5/5, 2%-by-weight, one month at room temperature) is given as 10%. In series [2] (oil/water 5/5, 2%-by-weight, start of aging), the “emulsion layer volume-%, start” value is listed as 65%. This compound yielded an emulsion layer percentage in series [2] of 60%. The “CMC Range” value in series [3] was 29-32 10^−6M. Besides, the “MST (minimum surface tension)” value in series [3] is given as 36.5 mN/m. For the same compound, the Average droplet size in series [6] (0.5 weight %, 24 hours) is given as 2.7 ± 0.4 μm; in series [6] (0.5 weight %, aged 3-months) it was 4.0 ± 0.4 μm; in series [6] (1 weight %, 24 hours), 2.7 ± 0.2 μm; in series [6] (1 weight %, aged 3-months) it was 3.7 ± 0.7 μm; in series [6] (2 weight %, 24 hours) it was 1.7 ± 0.1 μm; in series [6] (2 weight %, aged 3-months), 2.2 ± 0.5 μm.
